For one data set, the system named is B6C3F1 mouse. Nature of the data set: Example B: animal deaths after ADM with or without electrostatic field exposure in tumor-bearing mice. Format: in vivo. Details: key to animal death: “X” indicates an animal death. The source says: Before methods for practicing the present invention are discussed, it will be helpful to note the results of examples of the inventor's studies with animals exposed to electrostatic fields, and to electrostatic fields and chemicals in combination. The total scope of the inventor's studies regarding electrostatic field influence inside a living body has involved over 350 tumor bearing rodents, however for the sake of brevity only four such studies will be noted here. The inventor's research protocol used the B6C3F1 mouse strain. This mouse is recognized by the National Cancer Institute as one Standard for chemotherapy research, and is one of the commonly accepted rodent species used in cancer studies. For the inventor's studies, female mice were implanted with murine mammary 16/C adenocarcinoma, a commonly used tumor for cancer research. The 16/C murine mammary tumor is particularly aggressive, and can normally grow from a barely visible, or even invisible, bump under the skin the day after the implant, to 10 to 20 percent of the animal's total body weight by day 14 (tumor size typically up to 4 grams). Approximately equal-sized tumor fragments were implanted in each mouse's axillary region through a puncture in the inguinal region. All test animals were approximately six weeks old, with a body weight of 17 to 20 grams at the time of implant. Also, food and water were provided ad libitum throughout each study, and all Groups were exposed to the same temperature and light conditions (lights on 12 hours and off 12 hours each day). The studies were blinded in both the assignment of the animals to the study groups, and in all tumor measurements.
After the tumors were allow to establish and grow for several days, the mice were treated with adriamycin (ADM), a commonly used chemotherapeutic agent, at dose levels based on their individual weight and known to be safe. Following this, the animals were blindly divided into the study groups. The growth rate of the tumors in a Control Group, without exposure to electrostatic fields, was compared to that of Test Groups that were under the influence of an electrostatic field. Tumor measurements were made by caliper using the prolate ellipsoid formula of the National Cancer Institute to convert the measurements into weight. This method allowed the tumor weight of each animal to be tracked throughout the study.
The mice in each Test Group were subjected to electrostatic fields with the use of special cages. When the application of electrostatic fields was required, special equipment was used to expose the desired animal groups to an electrostatic field with an intensity of approximately 79,000 V/m from a charged element insulated from the animals.
This study used three groups of 11 tumor-bearing animals each. There was not a statistical difference in the size of the animal tumors at the start of the study. All of the animals were treated twice with 8 mg/kg ADM given on days 3 and 5 (16 mg/kg total). In addition, Groups B&C were exposed to an electrostatic field for 4 hours following each injection.
GA: Control, treated with ADM and no electrostatic field exposure.
GB: ADM plus exposure to a negative 15 kV DC charged screen 25.4 mm above, with a grounded grid below, the animals (90 mm between screen and grid).
GC: ADM plus exposure to 15 minute cycles of positive then negative 15 kV DC on a screen 25.4 mm above, with a grounded grid below, the animals (90 mm between screen and grid).
In this study the inventor inadvertently allowed the applied electrostatic fields in Groups B and C to increase the affect of the ADM to a lethal level. […] The electrostatic fields Groups B and C were exposed to increased the reaction of body cells to the ADM, creating the effect of a lethal overdose. […]

The subject of data set [1] is murine mammary 16/C adenocarcinoma. Briefly: Example A: tumor regression by ADM with or without electrostatic field exposure in tumor-bearing mice. Format: in vivo, B6C3F1 mouse.
Description: The inventor's research protocol used the B6C3F1 mouse strain. […] For the inventor's studies, female mice were implanted with murine mammary 16/C adenocarcinoma, a commonly used tumor for cancer research. […] Approximately equal-sized tumor fragments were implanted in each mouse's axillary region through a puncture in the inguinal region. All test animals were approximately six weeks old, with a body weight of 17 to 20 grams at the time of implant. Also, food and water were provided ad libitum throughout each study, and all Groups were exposed to the same temperature and light conditions (lights on 12 hours and off 12 hours each day). The studies were blinded in both the assignment of the animals to the study groups, and in all tumor measurements.
In the first study noted here, four groups of 11 tumor bearing animal each were used. […] All of the animals were treated with 12 mg/kg ADM on day 4, and housed in cages containing an insulated metal screen suspended 25.4-mm above the animals.
GA: Control, treated with ADM and no electrostatic field exposure. The screen above animals was not charged.
GB: The screen was charged, and changed from positive to negative 15 kV DC once each 15 minutes.
GC: The screen was charged 15 kV DC, and changed from positive to negative once each 15 minutes. The animals were on a grounded wire grid cage floor (115 mm between the screen and floor).
GD: The screen was charged, and changed from positive to negative 15 kV once each 15 minutes. There was no ground plane nearby.

The text below walks through data of patent US6488564B1, “Brassiere protecting against eletrostatic field induced tissue degradation” (priority 1999, dated 2002).

As to `COc1cccc2c1C(=O)c1c(O)c3c(c(O)c1C2=O)C[C@@](O)(C(=O)CO)C[C@@H]3O[C@H]1C[C@H](N)[C@H](O)[C@H](C)O1` [ADM, adriamycin], in the data set with B6C3F1 mouse (GA: 8 mg/kg ADM days 3 and 5, without exposure to a static field), the ill affect entry is listed as “no ill affect until day 30”. For the same compound, the animal death entry in the data set with B6C3F1 mouse (Group A: 8 mg/kg ADM days 3 and 5, no field, day 30 (death from tumor, not ADM)) is “X”; with B6C3F1 mouse (Group B: 8 mg/kg ADM days 3 and 5 plus negative 15 kV DC field 4 hours after each injection, day 12), “XXX”; in the data set with B6C3F1 mouse (Group B: 8 mg/kg ADM days 3 and 5 plus negative 15 kV DC field 4 hours after each injection, day 18) it was “X”; in the data set on B6C3F1 mouse (Group B: 8 mg/kg ADM days 3 and 5 plus negative 15 kV DC field 4 hours after each injection, day 19) it was “X”; with B6C3F1 mouse (Group B: 8 mg/kg ADM days 3 and 5 plus negative 15 kV DC field 4 hours after each injection, day 22) it was “X”; with B6C3F1 mouse (Group B: 8 mg/kg ADM days 3 and 5 plus negative 15 kV DC field 4 hours after each injection, day 28), “X”. Also, the animal death entry in the data set on B6C3F1 mouse (Group C: 8 mg/kg ADM days 3 and 5 plus 15 minute cycles of positive then negative 15 kV DC field 4 hours after each injection, day 11) was “X”; in the data set with B6C3F1 mouse (Group C: 8 mg/kg ADM days 3 and 5 plus 15 minute cycles of positive then negative 15 kV DC field 4 hours after each injection, day 12), “XXXXX”. The “necropsy of the dead animals” value in the data set with B6C3F1 mouse (Groups B and C: 8 mg/kg ADM days 3 and 5 plus electrostatic field) is listed as “obvious heart enlargement”. The tumor wt. loss in data set [1] (GA: 12 mg/kg ADM on day 4, no electrostatic field exposure (screen not charged)) was −24%; in data set [1] (GB: 12 mg/kg ADM on day 4 plus screen changed positive to negative 15 kV DC each 15 minutes, grounded wire grid below cage), −86%; in data set [1] (GC: 12 mg/kg ADM on day 4 plus screen 15 kV DC changed positive to negative each 15 minutes, animals on grounded wire grid cage floor), −80%; in data set [1] (GD: 12 mg/kg ADM on day 4 plus screen changed positive to negative 15 kV each 15 minutes, no ground plane nearby), −75%.
